From patent US20060019933A1, “Process for preparing stabilized vitamin D” (priority 2004, published 2006)

What was measured:
vitamin D receptor = biological target: T1, vitamin D receptor (Homo sapiens, UniProt P11473); conditions: agonism at the vitamin D receptor without 1α-hydroxylation; cited from earlier work
T1 sequence (P11473 1-427): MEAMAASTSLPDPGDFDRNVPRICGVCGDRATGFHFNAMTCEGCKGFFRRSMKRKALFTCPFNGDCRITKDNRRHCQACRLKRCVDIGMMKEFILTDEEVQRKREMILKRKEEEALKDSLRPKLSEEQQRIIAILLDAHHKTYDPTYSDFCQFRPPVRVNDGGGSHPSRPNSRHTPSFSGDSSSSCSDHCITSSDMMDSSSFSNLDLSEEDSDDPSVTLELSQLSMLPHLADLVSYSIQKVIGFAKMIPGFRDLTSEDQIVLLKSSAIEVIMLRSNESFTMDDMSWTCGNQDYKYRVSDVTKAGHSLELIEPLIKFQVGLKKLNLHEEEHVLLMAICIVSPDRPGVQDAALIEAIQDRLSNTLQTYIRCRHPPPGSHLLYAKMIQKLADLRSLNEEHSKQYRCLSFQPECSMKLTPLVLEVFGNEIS

[1] = Stability of amorphous vitamin D3 cast as a thin film; type: physicochemical
Description: In an additional experiment, vitamin D3 was cast as a thin film by evaporating a solution of vitamin D in ethyl acetate and the stability of this amorphous form of vitamin D was also investigated. […] The results of this and the previous experiment highlight the inherently low stability of vitamin D and the impact of both humidity and physical form (crystalline vs. amorphous) on degradation rates.

[2] = Chemical stability of neat, crystalline vitamin D3 at 40° C. and various humidities; type: physicochemical; conditions: one week
Protocol: Stability of neat, crystalline vitamin D3 was investigated at 40° C. and 5%, 20%, 50%, 75% relative humidity (% RH) over the course of one week. This experiment was used as a baseline for comparison of vitamin D3 stability after formulation as indicated above. A pronounced dependence of degradation rate upon relative humidity was observed, as depicted in FIG. 1. Under low humidity conditions, loss of active occurred at a rate of 0.58%/day and 0.76%/day at 5% RH and 20% RH, respectively.

Compound	intrinsic activity, fold lower than that of 1α,25-dihydroxy-cholecalciferol (vitamin D receptor)	degradation after 3 days ([1]; 25° C.)	degradation after 3 days ([1]; 40° C.)	degradation after 3 days ([1]; 40° C./75% RH)	rate of loss of active ([2]; 5% RH) [%/day]	rate of loss of active ([2]; 20% RH) [%/day]	degradation rate ([2]; 50% RH) [%/day]	degradation rate ([2]; 75% RH) [%/day]
C=C1CC[C@H](O)C/C1=C/C=C1\CCC[C@]2(C)[C@@H]([C@H](C)CCCC(C)(C)O)CC[C@@H]12 [25-hydroxy-cholecalciferol]	about 100 fold	–	–	–	–	–	–	–
C=C1CC[C@H](O)C/C1=C/C=C1\CCC[C@]2(C)[C@@H]([C@H](C)CCCC(C)C)CC[C@@H]12 [vitamin D3, cholecalciferol]	–	Essentially complete degradation	Essentially complete degradation	Essentially complete degradation	0.58	0.76	5.5	10.8
